Values of other authors in patent publication US6830755B2, “Method for relaxing human beings using personal care compositions” (Johnson & Johnson Consumer Companies, Inc., priority 1999, dated 2004).

Test system: salivary cortisol
Settings: exposure to fragrance before stressful arithmetic

Compound: Cc1c[nH]c2ccccc12 [skatole]
- effect on stress induced release of cortisol (in words): had the opposite effect
